For series [1] the following is noted: literature (Asai 2005; Liu and Qian 2002); cited from earlier work.
The test system of series [2] is scopolamine induced memory deficit. As to the kind of experiment: Scopolamine induced dementia, passive avoidance test. The settings on record: Swiss albino mice, 2 mg/kg. Format: in vivo. From the text: Animals were randomized to their body weight (n=6-8). All animals were then habituated to experimental apparatus (Passive avoidance instrument of make—UGO Basile Biological Research Apparatus Italy) prior to the experiment. For habituation, animals were placed gently in the light compartment of the apparatus. After 5 seconds guillotine door was opened and animal allowed entering the dark compartment without giving the shock. Animals that took more than 100 seconds to enter the dark room were eliminated from the experiments. For acquisition trial the animals were placed in light compartment and allowed to enter the dark compartment through guillotine door. As soon as the animal entered to the dark compartment, door was closed and animal was delivered a foot shock (0.5 mA current) immediately for the duration of 5 seconds. Animals were then removed from apparatus after 20 seconds and placed temporarily in its home cage. Repeated the same procedure (keeping the gap between acquisition trials to 5 minutes) till the animal remained in the light compartment for consecutive 120 seconds. Retention was recorded at day 2 without shock in dark chamber. Increase in transfer latency time from light to dark chamber indicated learning in animals. Rivastigmine was used as positive control in this study. […] Percentage (%) change in transfer latency as compared with control on retention trial was calculated. […]

For `CC(/C=C/C=C(\C)C(=O)O)=C\C=C\C=C(C)\C=C\C=C(/C)C(=O)O` [crocetin], the plasma half-life in series [1] is around 2 h.
`CCN(C)C(=O)Oc1cccc([C@H](C)N(C)C)c1` [rivastigmine]: in series [2], the “effect on latency time (positive control)” value is listed as “significant reduction in latency time”.

(Values after US12023365B2, “Sustained release formulations of Crocus sativus” (COUNCIL OF SCIENTIFIC & INDUSTRIAL RESEARCH, priority 2017, dated 2024).)
